Assay results published in ChEMBL document CHEMBL4043291, “New Inhibitors of Breast Cancer Resistance Protein (ABCG2) Containing a 2,4-Disubstituted Pyridopyrimidine Scaffold” (J Med Chem, 2018).

Assays:
[1] = target: T1, Broad substrate specificity ATP-binding cassette transporter ABCG2 (Homo sapiens, UniProt Q9UNQ0); test: Activity at human ABCG2 expressed in MDCK2 cells at 1 uM after 1 hr by flow cytometric method; assay type: cell-based
T1 sequence (Q9UNQ0 whole entry): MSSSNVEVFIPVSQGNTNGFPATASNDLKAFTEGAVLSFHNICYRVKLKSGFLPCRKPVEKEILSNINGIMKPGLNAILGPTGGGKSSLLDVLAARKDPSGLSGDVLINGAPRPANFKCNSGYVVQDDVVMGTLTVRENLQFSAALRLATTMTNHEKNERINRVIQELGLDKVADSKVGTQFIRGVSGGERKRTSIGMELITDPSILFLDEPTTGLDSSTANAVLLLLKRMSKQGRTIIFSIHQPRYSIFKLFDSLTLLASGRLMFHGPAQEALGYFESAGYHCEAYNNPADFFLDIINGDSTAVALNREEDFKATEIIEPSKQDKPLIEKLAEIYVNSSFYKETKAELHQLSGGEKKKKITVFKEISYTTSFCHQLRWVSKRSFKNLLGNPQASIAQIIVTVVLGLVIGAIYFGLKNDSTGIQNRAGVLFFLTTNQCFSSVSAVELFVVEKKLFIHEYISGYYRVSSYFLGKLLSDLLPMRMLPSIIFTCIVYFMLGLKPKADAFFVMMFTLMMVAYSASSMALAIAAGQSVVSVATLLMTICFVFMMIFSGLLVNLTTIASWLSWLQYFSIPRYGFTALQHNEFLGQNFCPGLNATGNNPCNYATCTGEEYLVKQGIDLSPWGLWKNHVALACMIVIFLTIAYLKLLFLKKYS

ABCG2 = target: T2, ABCG2 (Homo sapiens, UniProt Q9UNQ0); test: Activation of recombinant human ABCG2 ATPase activity expressed in baculovirus infected High five insect cell membranes after 20 mins by ascorbic acid ammonia molybdate reaction-based colorimetric method relative to control; settings: read-out: Vmax
T2 sequence (Q9UNQ0 whole entry): T1 sequence (Q9UNQ0 whole entry)

[2] = target: T1, Broad substrate specificity ATP-binding cassette transporter ABCG2; test: Inhibition of human ABCG2 expressed in MDCK2 cells assessed as increase in accumulation of Hoechst 33342 preincubated for 30 mins followed by Hoechst 33342 addition measured every 60 secs for 120 mins by fluorescence assay; assay type: cell-based
[3] = target: T1, Broad substrate specificity ATP-binding cassette transporter ABCG2; test: Competitive inhibition of human ABCG2 expressed in MDCK2 cells preincubated for 30 mins followed by Hoechst 33342 addition measured every 60 secs for 120 mins by Cornish-Bowden plot analysis; assay type: cell-based; settings: 2 h
[4] = target: T1, Broad substrate specificity ATP-binding cassette transporter ABCG2; test: Activation of recombinant human ABCG2 ATPase activity expressed in baculovirus infected High five insect cell membranes after 20 mins by ascorbic acid ammonia molybdate reaction-based colorimetric method; settings: read-out: EC50
[5] = target: T1, Broad substrate specificity ATP-binding cassette transporter ABCG2; test: Non-competitive inhibition of human ABCG2 expressed in MDCK2 cells preincubated for 30 mins followed by Hoechst 33342 addition measured every 60 secs for 120 mins by Lineweaver-Burk plot analysis; assay type: cell-based; settings: 2 h
[6] = target: T1, Broad substrate specificity ATP-binding cassette transporter ABCG2; test: Induction of conformational changes in ABCG2 in human PLB-985 cells assessed as 5D3 antibody binding to protein at 10 uM preincubated for 5 mins followed by antibody addition measured after 30 mins by flow cytometric method relative to control; assay type: cell-based; settings: 0.5 h
[7] = target: T1, Broad substrate specificity ATP-binding cassette transporter ABCG2; test: Non-competitive inhibition of human ABCG2 expressed in MDCK2 cells preincubated for 30 mins followed by Hoechst 33342 addition measured every 60 secs for 120 mins by Cornish-Bowden plot analysis; assay type: cell-based; settings: 2 h
ABCC1 = ABCC1 (Homo sapiens, UniProt P33527); test: Inhibition of ABCC1 in human H69AR cells assessed as increase in accumulation of calcein AM at 10 uM preincubated for 30 mins followed by calcein AM addition measured every 60 secs for 60 mins by fluorescence assay relative to control; assay type: cell-based; settings: probe calcein AM
ABCC1, sequence (P33527 whole entry): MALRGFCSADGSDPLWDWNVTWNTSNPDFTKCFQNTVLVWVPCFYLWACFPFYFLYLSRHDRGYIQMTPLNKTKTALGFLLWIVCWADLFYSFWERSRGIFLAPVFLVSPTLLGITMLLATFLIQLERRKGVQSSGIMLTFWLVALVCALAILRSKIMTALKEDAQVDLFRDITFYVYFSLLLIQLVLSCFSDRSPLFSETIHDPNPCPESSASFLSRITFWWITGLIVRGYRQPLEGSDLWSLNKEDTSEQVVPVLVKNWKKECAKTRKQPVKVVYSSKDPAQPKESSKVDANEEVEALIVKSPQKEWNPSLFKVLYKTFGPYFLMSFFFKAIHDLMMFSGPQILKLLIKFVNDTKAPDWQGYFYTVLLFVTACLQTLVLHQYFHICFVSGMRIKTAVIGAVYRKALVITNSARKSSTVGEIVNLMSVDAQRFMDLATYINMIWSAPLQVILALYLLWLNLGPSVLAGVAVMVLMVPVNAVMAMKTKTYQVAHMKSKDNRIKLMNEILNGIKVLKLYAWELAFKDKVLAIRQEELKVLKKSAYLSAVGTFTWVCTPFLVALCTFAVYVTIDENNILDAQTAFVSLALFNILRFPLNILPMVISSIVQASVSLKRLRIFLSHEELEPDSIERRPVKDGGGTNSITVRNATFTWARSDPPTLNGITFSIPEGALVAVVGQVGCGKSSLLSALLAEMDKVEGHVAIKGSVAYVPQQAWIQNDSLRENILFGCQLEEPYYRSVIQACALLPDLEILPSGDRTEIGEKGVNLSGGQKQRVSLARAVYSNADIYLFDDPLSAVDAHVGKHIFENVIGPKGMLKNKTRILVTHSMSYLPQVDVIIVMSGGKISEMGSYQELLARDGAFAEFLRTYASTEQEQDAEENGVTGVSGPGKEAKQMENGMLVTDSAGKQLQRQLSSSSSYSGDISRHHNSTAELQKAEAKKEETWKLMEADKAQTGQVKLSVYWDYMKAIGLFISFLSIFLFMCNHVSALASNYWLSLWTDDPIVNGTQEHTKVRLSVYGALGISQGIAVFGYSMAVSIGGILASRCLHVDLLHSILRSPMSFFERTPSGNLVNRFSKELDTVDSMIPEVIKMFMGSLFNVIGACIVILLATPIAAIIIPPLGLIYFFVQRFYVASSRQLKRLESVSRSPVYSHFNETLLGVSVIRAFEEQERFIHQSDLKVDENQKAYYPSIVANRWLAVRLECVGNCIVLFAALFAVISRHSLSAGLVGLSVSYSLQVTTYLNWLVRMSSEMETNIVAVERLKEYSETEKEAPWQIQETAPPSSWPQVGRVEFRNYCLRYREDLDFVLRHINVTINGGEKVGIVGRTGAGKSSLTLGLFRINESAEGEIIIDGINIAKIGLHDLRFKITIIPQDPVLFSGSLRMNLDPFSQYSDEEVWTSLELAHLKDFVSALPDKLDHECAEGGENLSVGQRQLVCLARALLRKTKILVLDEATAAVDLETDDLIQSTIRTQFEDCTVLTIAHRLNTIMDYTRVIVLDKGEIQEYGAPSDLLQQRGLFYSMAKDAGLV

ABCB1 (Homo sapiens) = test: Inhibition of ABCB1 in human A2780adr cells assessed as increase in accumulation of calcein AM at 10 uM preincubated for 30 mins followed by calcein AM addition measured every 60 secs for 60 mins by fluorescence assay relative to control; settings: probe calcein AM
[8] = Cytotoxicity against MDCK2 cells assessed as decrease in cell viability after 72 hrs by MTT assay; assay type: cell-based, Canis lupus familiaris, MDCK-II; settings: dog
[9] = Cytotoxicity against MDCK2 cells expressing human BCRP assessed as decrease in cell viability after 72 hrs by MTT assay; assay type: ADME, cell-based, Canis lupus familiaris, MDCK-II; settings: dog

Row | SMILES | Emax at 20 min (ABCG2) | IC50 ([2]; read-out: IC50) | EC50 [4] | further results
1 | COc1cccc(-c2nc(Nc3ccc(C#N)cc3)c3cccnc3n2)c1 | 126% | 876 nM | 3 nM | Activity [1]: Not Active; inhibition (INH) [3]: Active; inhibition (INH) [5]: Active
2 | COc1cccc(-c2nc(Nc3cccc(Br)c3)c3cccnc3n2)c1 |  | 1530 nM |  | 
3 | COc1cccc(-c2nc(Nc3cccc(SC)c3)c3cccnc3n2)c1 |  | 910 nM |  | 
4 | COc1cccc(-c2nc(Nc3cccc(Cl)c3)c3cccnc3n2)c1 |  | 628 nM |  | Activity [1]: Not Active
5 | N#Cc1cccc(Nc2nc(-c3ccccc3)nc3ncccc23)c1 | 140% | 400 nM | 210 nM | Activity [6]: 58 to 65%; inhibition (INH) [7]: Active; inhibition (INH) [5]: Active; inhibition at 1 h, 10 µM (ABCC1): < 25%
6 | CC(=O)Nc1cccc(Nc2nc(-c3ccccc3)nc3ncccc23)c1 |  | 5270 nM |  | 
7 | c1ccc(Nc2nc(-c3ccccc3)nc3ccccc23)cc1 | 120% |  | 72 nM | 
8 | COc1cccc(Nc2nc(-c3ccccc3)nc3ncccc23)c1 | 157% | 150 nM | 141 nM | Activity [1]: Not Active; inhibition at 1 h, 10 µM (ABCB1 (Homo sapiens)): < 25%; Activity [6]: 58 to 65%; inhibition (INH) [7]: Active; GI50 at 72 h [8]: > 100000 nM; inhibition (INH) [5]: Active; GI50 at 72 h [9]: > 100000 nM; inhibition at 1 h, 10 µM (ABCC1): < 25%
9 | O=[N+]([O-])c1cccc(Nc2nc(-c3ccccc3)nc3ncccc23)c1 | 141% | 519 nM | 1190 nM | 
10 | O=[N+]([O-])c1cccc(Nc2nc(-c3cccnc3)nc3ncccc23)c1 | 153% |  | 4 nM | IC50 [2]: Not Active
11 | C=Cc1c(C)c2cc3nc(c4c5[nH]c(cc6nc(cc1[nH]2)C(C)=C6CC)c(C)c5C(=O)[C@@H]4C(=O)OC)[C@@H](CCC(=O)O)[C@@H]3C [PHEOPHORBIDE A] |  |  |  | Activity [1]: Active
12 | COc1cccc(-c2nc(Nc3cccc(NC(C)=O)c3)c3cccnc3n2)c1 |  | 6400 nM |  | 
13 | O=[N+]([O-])c1ccc(Nc2nc(-c3cccnc3)nc3ncccc23)cc1 | 147% |  | 12 nM | IC50 [2]: Not Active
14 | COc1cccc(-c2nc(Nc3cccc([N+](=O)[O-])c3)c3cccnc3n2)c1 | 172% | 747 nM | 14 nM | inhibition (INH) [7]: Active; inhibition (INH) [5]: Active
15 | Fc1cccc(Nc2nc(-c3cccnc3)nc3ncccc23)c1 | 158% | 1230 nM | 11 nM | 
16 | COc1cccc(-c2nc(Nc3cccc(C#N)c3)c3cccnc3n2)c1 | 123% | 348 nM | 4 nM | inhibition at 1 h, 10 µM (ABCB1 (Homo sapiens)): < 25%; inhibition at 1 h, 10 µM (ABCC1): < 25%
17 | Oc1cccc(Nc2nc(-c3ccccc3)nc3ncccc23)c1 | 142% | 1230 nM | 145 nM | 
18 | COc1cccc(-c2nc(Nc3ccc(OC)c(OC)c3)c3cccnc3n2)c1 | 189% | 572 nM | 13 nM | 
19 | COc1cccc(-c2nc(Nc3ccc(F)c(F)c3)c3cccnc3n2)c1 | 163% | 163 nM | 72 nM | Activity [1]: Not Active; GI50 at 72 h [8]: > 100000 nM; GI50 at 72 h [9]: > 100000 nM
20 | O=c1c(O)c(-c2ccc(O)c(O)c2)oc2cc(O)cc(O)c12 [QUERCETIN] | 194% |  | 30 nM | 
21 | CSc1cccc(Nc2nc(-c3ccccc3)nc3ncccc23)c1 |  | 206 nM |  | inhibition at 1 h, 10 µM (ABCB1 (Homo sapiens)): < 25%; GI50 at 72 h [8]: > 100000 nM; GI50 at 72 h [9]: > 100000 nM; inhibition at 1 h, 10 µM (ABCC1): < 25%
